Results: patent US20170304228A1, “NEW INDICATION OF CINACALCET HCL PHARMACEUTICAL COMPOSITION FOR TREATING CANCER” (LAUNX BIOMEDICAL CO., LTD., priority 2014, published 2017)
“And” between values parts separate entries of the source, which are not always exact repeats. Identical values can stand only once. Counter-ions that a name gives are not always drawn. Like-named read-outs stand apart in the source and are kept apart here.

Assays:
HCT116-wt = experiment: Cell viability analysis (WST-1), HCT116-wt; type: cell-based; conditions: read-out: survival rate (viability) of cells
Experimental: (§1) The cell numbers were counted and reseed as 2×10^6 in culture plate/flask. Then, the culture medium were added to a volume of 10 ml, and the cells were cultured for 2-3 days. Then, the cells were suspended for loading into 96-well plates. The number of cells was 3000 and the volume of the culture medium was 100 μl each well.
(§2) Removing the original culture medium from 96-well plate. Then add 100 μl of commercially drug at a concentration of 10 μM per well. After 72 hours, add the diluted WST-1 reagent to the well with 100 μl/well, and the diluted WST-1 reagent was acquired from the dilution of 9:1 medium and WST-1 stock reagent. Finally, the total volume of each well was 200 μl/well. Culture the 96-well plate at 37° C. for 30 to 90 minutes. Detecting and calculate the survival rate of each cancer cells with an ELISA reader at OD450 nm. The lower viability of cancer cells represents better inhibition effect via the Cinacalcet HCl drug. Otherwise, the higher viability of cancer cells represents worse inhibition effect via the Cinacalcet HCl drug.
(§3) This inhibition test of Cinacalcet HCl on gastrointestinal tract-related cancer cells were using gastric cancer cell lines AGS and MKN-45 (Table 9), hepatic cancer cell lines HepG2 and Hep3B (Table 10), colorectal cancer cell lines HCT116-wt and LoVo (Table 11), pancreatic cancer cell line AsPC-1 and BxPC-3(Table 12), tongue cancer cell line SAS (Table 13). The inhibitory tests of Cinacalcet HCl were performed 4 times for each cell lines and then the average value of the inhibitory tests was calculated.

AsPC-1 = experiment: Cell viability analysis (WST-1), AsPC-1; type: cell-based; conditions: Homo sapiens, read-out: survival rate (viability) of cells
Experimental: as §1, §2, §3

[1] = Cell viability analysis (WST-1), normal kidney cell line HEK293; type: cell-based; conditions: human, HEK293 cells (normal kidney cell line)
Experimental: as §1
as §2, with “Otherwise, the higher viability of cancer cells represents worse inhibition effect via the Cinacalcet HCl drug.” left out
This inhibition test of Cinacalcet HCl on normal cells were using normal kidney cell line HEK293 (Table 16), normal pulmonary epithelial cell lines […] BEAS-2B (Table 17). The inhibitory tests of Cinacalcet HCl were performed 4 times for each cell lines and then the average value of the inhibitory tests was calculated The results were shown in Tables 16 and Tables 17.

LoVo = experiment: Cell viability analysis (WST-1), LoVo; type: cell-based; conditions: Homo sapiens, read-out: survival rate (viability) of cells
Experimental: as §1, §2, §3

SAS = experiment: Cell viability analysis (WST-1), SAS; type: cell-based
Experimental: as §1, §2, §3

[2] = Animal model test of gastric cancer, body weight and health status; type: in vivo, mice; conditions: for weight: single mice A, B, C, hydrochloride
Experimental: (§4) In this invention, the female mice were(BALB/cAnN.Cg-Foxnl™/CrlNarl) and purchased from National Laboratory Animal Center (Taiwan). The weight of the mice were 21±1 g. These mice were subcutaneously injected with gastric cancer cells (AGS) and then put these mice into different cages at random. The drug test experiment was divided into three groups, include “control group”, “low dose group (100 mg/kg/day)”, “high dose group (200 mg/kg/day)”. These mice were then injected test drug intraperitoneally once daily […]. The tumor sizes and body weight were measured twice a week. The tumor sizes were measured and calculated by formula: (L×W^2)/2. L represents the tumor longest length. W represents the tumor shortest diameter.

breast cancer cells = experiment: Summary of cell viability, breast cancer cells; type: cell-based; conditions: 72 hours, read-out: Inhibitory effect
Experimental: as §1, §2
(§5) Cinacalcet HCl is having different inhibitory effect on different tumor cell type even in the same cancer. […] (FIG. 1)

various cancer cells = experiment: Inhibitory effect on various cancer cells; type: cell-based; conditions: FIG. 1
Experimental: as §2, §5

HeLa = experiment: Cell viability analysis (WST-1), HeLa; type: cell-based; conditions: Homo sapiens, read-out: survival rate (viability) of cells
Experimental: as §1, §2
This inhibition test of Cinacalcet HCl on abdominal-related cancer cells were using bladder cancer cell line TSGH and T24 (Table 3), cervical cancer cell lines HeLa and C-33A (Table 4), renal cancer cell line 786-O (Table 5). The inhibitory tests of Cinacalcet HCl were performed 4 times for each cell lines and then the average value of the inhibitory tests was calculated.

[3] = system: gastric cancer cells (AGS); experiment: Animal model test of gastric cancer, tumor size; type: in vivo, mice
Experimental: as §4

[4] = Low dose (100 mg/kg/day) intraperitoneally, First measurement, average
[5] = Low dose (100 mg/kg/day) intraperitoneally, First measurement, single mice A, B, C, hydrochloride, 100 mg/kg/day
[6] = Low dose (100 mg/kg/day) intraperitoneally, Fourth measurement, average
[7] = Low dose (100 mg/kg/day) intraperitoneally, Fourth measurement, single mice A, B, C, hydrochloride, 100 mg/kg/day
[8] = Low dose (100 mg/kg/day) intraperitoneally, Second measurement, average
[9] = Low dose (100 mg/kg/day) intraperitoneally, Second measurement, single mice A, B, C, hydrochloride, 100 mg/kg/day
[10] = Low dose (100 mg/kg/day) intraperitoneally, Third measurement, average
[11] = both low dose and high dose, FIG. 3
[12] = high dose (200 mg/kg/day) intraperitoneally, First measurement, average
[13] = high dose (200 mg/kg/day) intraperitoneally, First measurement, single mice A, B, C, hydrochloride, 200 mg/kg/day
[14] = high dose (200 mg/kg/day) intraperitoneally, Fourth measurement, average
[15] = high dose (200 mg/kg/day) intraperitoneally, Second measurement, average
[16] = high dose (200 mg/kg/day) intraperitoneally, Second measurement, single mice A, B, C, hydrochloride, 200 mg/kg/day
[17] = high dose (200 mg/kg/day) intraperitoneally, Third measurement, average
[18] = high dose (200 mg/kg/day) intraperitoneally, Third measurement, single mice A, B, C, hydrochloride, 200 mg/kg/day

## C[C@@H](NCCCc1cccc(C(F)(F)F)c1)c1cccc2ccccc12 [Cinacalcet HCl, Cinacalcet hydrochloride]
HCT116-wt; 72 h, average of tests
  viability at 10 µM: 110%
HCT116-wt; 72 hours, test 0602-30 min
  viability at 10 µM: 89%
HCT116-wt; 72 hours, test 0605-10 min
  viability at 10 µM: 107%
HCT116-wt; 72 hours, test 0607-10 min
  viability at 10 µM: 132%
HCT116-wt; 72 hours, test 0609-10 min
  viability at 10 µM: 113%
AsPC-1; ASPC1, 10 μM, 72 hours, test 1-4-30 min
  viability at 10 µM: 71.9%
AsPC-1; ASPC1, 10 μM, 72 hours, test 1-7-3-30 min
  viability at 10 µM: 61.6%
AsPC-1; ASPC1, 10 μM, 72 hours, test 1-7-4-30 min
  viability at 10 µM: 81.7%
AsPC-1; ASPC1, 10 μM, 72 hours, test 1-7-7-30 min
  viability at 10 µM: 60.4%
AsPC-1; ASPC1, 72 h, 10 μM, Average of tests
  viability at 10 µM: 68.9%
[1]; average of tests, read-out: survival rate (viability) of cells
  viability at 72 h, 10 µM: 114%
[1]; summary, kidney cell lines, read-out: Inhibitory effect
  viability at 72 h, 10 µM: 114%
LoVo; 72 h, average of tests
  viability at 10 µM: 93.4%
LoVo; 72 hours, test 0616-10 min
  viability at 10 µM: 73.9%
LoVo; 72 hours, test 0619-10 min
  viability at 10 µM: 125%
LoVo; 72 hours, test 0621-10 min
  viability at 10 µM: 90.4%
LoVo; 72 hours, test 0623-10 min
  viability at 10 µM: 84.2%
SAS; 72 h, average of tests, read-out: survival rate (viability) of cells
  viability at 10 µM: 82.4%
SAS; 72 h, summary, tongue cancer, read-out: Inhibitory effect
  viability at 10 µM: 77.4%
SAS; 72 hours, test 6-26-10 min, read-out: survival rate (viability) of cells
  viability at 10 µM: 45.7%
SAS; 72 hours, test 6-28-10 min, read-out: survival rate (viability) of cells
  viability at 10 µM: 88.9%
SAS; 72 hours, test 6-30-10 min, read-out: survival rate (viability) of cells
  viability at 10 µM: 96.2%
SAS; 72 hours, test 7-3-10 min, read-out: survival rate (viability) of cells
  viability at 10 µM: 98.9%
[2]; Low dose (100 mg/kg/day) intraperitoneally, First measurement, 100 mg/kg/day
  weight: 20 g and 16 g and 21 g
[2]; Low dose (100 mg/kg/day) intraperitoneally, Fourth measurement, 100 mg/kg/day
  weight: 22 g and 23 g
[2]; Low dose (100 mg/kg/day) intraperitoneally, Second measurement, 100 mg/kg/day
  weight: 21 g and 22 g and 19 g
[2]; Low dose (100 mg/kg/day) intraperitoneally, Third measurement, 100 mg/kg/day
  weight: 23.5 g and 21 g
[2]; both high and low doses
  health status / death of tested mice during the treatment: without death
[2]; both low dose and high dose
  weight of mice during the experiment: did not show a significant decrease
[2]; high dose (200 mg/kg/day) intraperitoneally, Fourth measurement, 200 mg/kg/day
  weight: 23 g and 20 g
[2]; high dose (200 mg/kg/day) intraperitoneally, Second measurement, 200 mg/kg/day
  weight: 18.5 g and 21 g and 19 g
[2]; high dose (200 mg/kg/day) intraperitoneally, Third measurement, 200 mg/kg/day
  weight: 19 g and 22 g and 18.5 g
Breast cancer cells
  viability at 10 µM: 108%
Various cancer cells
  inhibitory effect on various cancer cells: significant inhibitory effect and specificity
HeLa; 72 h, average of tests
  viability at 10 µM: 111%
HeLa; 72 hours, test 0524-10 min
  viability at 10 µM: 110%
HeLa; 72 hours, test 0526-10 min
  viability at 10 µM: 119%
HeLa; 72 hours, test 0529-10 min
  viability at 10 µM: 104%
HeLa; 72 hours, test 0531-10 min
  viability at 10 µM: 113%
[3]; [4]
  tumor volume: 592 mm3
  tumor volume growth: 592 mm3
[3]; [5]
  tumor longest length: 11 mm and 13 mm and 14 mm
  tumor width: 8 mm and 12 mm
[3]; [6]
  tumor volume: 562.1667 mm3
  tumor volume growth: −240.3333 mm3
[3]; [7]
  tumor longest length: 10 mm and 14 mm and 13 mm
  tumor width: 7 mm and 13 mm
[3]; [8]
  tumor volume: 277.5 mm3
  tumor volume growth: −314.5 mm3
[3]; [9]
  tumor longest length: 8 mm and 16 mm and 9 mm
  tumor width: 5 mm and 8 mm and 7 mm
[3]; [10]
  tumor volume: 802.5 mm3
  tumor volume growth: 525 mm3
[3]; both low dose and high dose, FIG. 2
  inhibition effect on tumor cells: significant inhibition effect
[3]; [11]
  tumor volume: can also reduce the tumor volume
  tumor volume growth: effectively slow down the tumor volume growth
[3]; [12]
  tumor volume: 81.17 mm3
  tumor volume growth: 81.17 mm3
[3]; [13]
  tumor longest length: 7 mm and 6 mm
  tumor width: 5 mm and 6 mm and 4 mm
[3]; [14]
  tumor volume: 22.33 mm3
  tumor volume growth: −56.8333 mm3
[3]; [15]
  tumor volume: 131.1667 mm3
  tumor volume growth: 50 mm3
[3]; [16]
  tumor longest length: 7 mm and 6 mm
  tumor width: 7 mm and 5 mm
[3]; [17]
  tumor volume: 79.17 mm3
  tumor volume growth: −52 mm3
[3]; high dose (200 mg/kg/day) intraperitoneally, Third measurement, single mice A, B, C
  tumor width: 5 mm
[3]; [18]
  tumor longest length: 7 mm and 6 mm
  tumor volume: 87.5 mm3 and 75 mm3
[3]; high doses, FIG. 3
  inhibition of tumor growth, high doses compared with low dose: better effect to inhibit tumor growth
